Experimental data from publication PMC10094921, “A Lipidated Single-B-Chain Derivative of Relaxin Exhibits Improved In Vitro Serum Stability without Altering Activity” (International Journal of Molecular Sciences, 2023).
One block for each compound: values may come before it. Starred links: 1 amine or outer side, 2 acyl side, 3 side chain; linkers in the order of their positions; H or OH if unused. Non-standard residues stand in square brackets, D forms with d. Residues, ends and D or L forms follow the SMILES beside them. Groups on a side chain read outwards from the residue. *: point of attachment. PEG12 = NCCOCCOCCOCCOCCOCCOCCOCCOCCOCCOCCOCCOCCC(=O)O; γGlu = O=C(O)[C@H](CCC(=O)[*:2])N[*:1]; PEG6 = NCCOCCOCCOCCOCCOCCOCCC(=O)O; Palmitoyl = CCCCCCCCCCCCCCCC(=O)*

Legend:
[1] = target: T1, 7BP protein (RXFP1 extracellular domain attached with a single TM domain) (Homo sapiens, UniProt Q9HBX9); assay: Eu-H2 relaxin competition binding in HEK-7BP cells, BSA free; details: HEK-293T cells stably expressing 7BP, BSA excluded from buffer, mean ± SEM, n in brackets, one-site fit, read-out: HEK-7BP Binding B.S.A. Free Eu-H2 pKi (n) (converted)
T1 construct: RXFP1 extracellular domain attached with a single TM domain instead of the native 7 TM domain; single transmembrane domain replacing the native 7 TM domain (heterologous); expressed in transfected cells; host or cells: HEK-293T cells stably expressing 7BP (HEK-7BP)
T1 sequence (Q9HBX9 1-409 limits assumed): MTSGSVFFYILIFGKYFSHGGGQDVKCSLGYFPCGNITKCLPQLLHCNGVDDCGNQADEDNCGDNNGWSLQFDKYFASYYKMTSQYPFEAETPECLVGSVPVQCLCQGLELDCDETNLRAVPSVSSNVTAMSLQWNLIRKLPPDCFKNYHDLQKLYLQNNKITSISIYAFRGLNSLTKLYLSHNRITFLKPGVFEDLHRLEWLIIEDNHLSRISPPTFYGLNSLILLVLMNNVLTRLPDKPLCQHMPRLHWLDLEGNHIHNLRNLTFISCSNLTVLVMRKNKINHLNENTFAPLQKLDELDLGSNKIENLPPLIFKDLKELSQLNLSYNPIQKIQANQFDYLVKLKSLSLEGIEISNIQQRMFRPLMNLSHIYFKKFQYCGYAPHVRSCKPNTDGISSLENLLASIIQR
Description: 3.6. HEK-7BP Binding Assays
HEK-293T cells stably expressing the 7BP protein (HEK-7BP; RXFP1 extracellular domain attached with a single TM domain instead of the native 7 TM domain [30]) were plated in 96-well plates. The medium was aspirated off, and the cells were washed with phosphate-buffered saline (PBS) before competition binding assays were performed with Eu-H2 Relaxin (RXFP1 ligand), as previously described, with the only difference being that BSA was excluded from the binding assay buffer. Competition binding curves for each peptide were performed in triplicate, and each experiment was performed independently at least three times. Fluorescent measurements were carried out on a BMG POLARstar plate reader (BMG Labtech, Melbourne, Australia). Pooled data are presented as mean ± SE of specific binding and are fitted using a one-site binding curve in GraphPad Prism version 8 (GraphPad Inc., San Diego, CA, USA). Statistical analyses were conducted using a one-way analysis of variance with uncorrected Fisher’s least significant difference (LSD) post-hoc analysis in GraphPad Prism version 8.

[2] = In vitro serum stability assay; assay type: in vitro ADME, human; details: 37 °C
Description: 3.7. In Vitro Serum Stability Assay
A total of 400 µL of human serum was taken, and 200 µg peptide dissolved in 100 µL of water was added to human serum at 37 °C. A total of 80 µL of samples was removed at various time points (0 min, 30 min, 60 min, 120 min, 240 min, and 480 min), and 160 µL of acetonitrile was added to precipitate plasma proteins. The solution was then centrifuged at 12,000 rpm for 15 min at 4 °C. A total of 200 µL of supernatant was taken out and mixed with 240 µL of milli-Q water, and each sample was analyzed by RP-HPLC (2 × 80 μL injection), by measuring the area under the peak at the appropriate retention time compared to the peak area of the peptide at time zero minute (100%). Data analysis (n = 3, duplicate) was performed using Prism Version 8.0.2, a non-linear-fit one-phase decay model.

[3] = system: BJ3 human dermal myofibroblasts; assay: Myofibroblast differentiation in vitro (α-SMA expression, Western blot); assay type: cell-based
Description: 3.8. Determination of the Effects of Lipidated (L)-B7-33 on Myofibroblast Differentiation In Vitro
To determine if the lipidation of B7-33 prolonged its ability to suppress myofibroblast differentiation in vitro, the effects of the native B7-33 peptide vs. lipidated (L)-B7-33 were compared in BJ3 cells, a human dermal fibroblast cell line. BJ3 fibroblasts were used between passages 15–18 and cultured as described before. […] BJ3 cells were plated in 12-well plates at a density of 1–1.25 × 10^5 cells per well and were then either left untreated or stimulated with transforming growth factor (TGF)-β1 (T; 2 ng/mL) alone (to promote myofibroblast differentiation) or with T + B7-33 (100 ng/mL) or T + L-B7-33 (100 ng/mL) for a 14-day period, in media that was left unchanged over this time period. The cells from duplicate wells per treatment group were isolated from plates at 3-, 5-, 7-, 10- and 14-days post-T ± peptide treatment and extracted for protein using the RIPA lysis buffer (ThermoFisher Scientific; Scoresby, Victoria, Australia). These experiments were performed six independent times.
Half the cell protein (in 10 μL of RIPA buffer) from each sample (that was fully reconstituted in 20 μL of RIPA buffer) was loaded and electrophoresed in separate mini-protean 4–15% precast gels, and analyzed by Western blotting using a primary monoclonal antibody to α-SMA (42 kDa; M0851; […]; Agilent Technologies, Santa Clara, CA, USA). The equivalent loading of protein between samples was confirmed using a rabbit monoclonal glyceraldehyde 3-phosphate dehydrogenase (GAPDH) housekeeping antibody (37 kDa; 2118; 1:1000 dilution; Cell Signaling Technology; Danvers, MA, USA). Each membrane was then subjected to appropriate anti-mouse (7076) or anti-rabbit (7074) horseradish peroxidase-conjugated secondary antibodies (both at a 1:2000 dilution; Cell Signaling Technologies), before proteins were detected using the Clarity Western ECL substrate detection kit and quantified by densitometry with a ChemiDoc MP Imaging System and Image Lab v.6.0 software (both from Bio-Rad Laboratories, Hercules, CA, USA).The density of α-SMA from each sample was corrected for GAPDH protein levels and then expressed relative to the ratio that was measured from the unstimulated control group, which was expressed as 1 in each case. Representative blots of α-SMA and GAPDH were also chosen for presentation in each case.

SMILES: CCCCCCCCCCCCCCCC(=O)NCCCC[C@H](NC(=O)[C@H](CCC(=O)O)NC(=O)[C@H](Cc1ccc(O)cc1)NC(=O)[C@@H](N)CCC(=O)O)C(=O)N[C@@H](CCC(=O)O)C(=O)N[C@@H](Cc1ccc(O)cc1)C(=O)N[C@@H](CCC(=O)O)C(=O)N[C@H](C(=O)N[C@H](C(=O)N[C@@H](CCCCN)C(=O)N[C@@H](CC(C)C)C(=O)N[C@@H](CO)C(=O)NCC(=O)N[C@@H](CCCNC(=N)N)C(=O)N[C@@H](CCC(=O)O)C(=O)N[C@@H](CC(C)C)C(=O)N[C@H](C(=O)N[C@@H](CCCNC(=N)N)C(=O)N[C@@H](C)C(=O)N[C@@H](CCC(N)=O)C(=O)N[C@H](C(=O)N[C@@H](C)C(=O)N[C@H](C(=O)N[C@@H](CO)C(=O)NCC(=O)N[C@@H](CCSC)C(=O)N[C@@H](CO)C(=O)N[C@H](C(=O)N[C@@H](Cc1c[nH]c2ccccc12)C(=O)N[C@@H](CO)C(=O)N[C@@H](CCCCN)C(=O)N[C@@H](CCCNC(=N)N)C(=O)N[C@@H](CO)C(=O)N[C@@H](CC(C)C)C(N)=O)[C@@H](C)O)[C@@H](C)CC)[C@@H](C)CC)C(C)C)[C@@H](C)CC)C(C)C [Tag-B7-33] (H-EYEK(Palmitoyl)EYEVIKLSGRELVRAQIAISGMSTWSKRSL-NH2)
Ki [1]: > 10 µM

SMILES: CCCCCCCCCCCCCCCC(=O)NCCCC[C@H](NC(=O)[C@H](CCC(=O)O)NC(=O)[C@H](Cc1ccc(O)cc1)NC(=O)[C@@H](N)CCC(=O)O)C(=O)N[C@@H](CCC(=O)O)C(=O)N[C@@H](Cc1ccc(O)cc1)C(=O)N[C@@H](CCC(=O)O)C(=O)NCCOCCOCCOCCOCCC(=O)N[C@H](C(=O)N[C@H](C(=O)N[C@@H](CCCCN)C(=O)N[C@@H](CC(C)C)C(=O)N[C@@H](CO)C(=O)NCC(=O)N[C@@H](CCCNC(=N)N)C(=O)N[C@@H](CCC(=O)O)C(=O)N[C@@H](CC(C)C)C(=O)N[C@H](C(=O)N[C@@H](CCCNC(=N)N)C(=O)N[C@@H](C)C(=O)N[C@@H](CCC(N)=O)C(=O)N[C@H](C(=O)N[C@@H](C)C(=O)N[C@H](C(=O)N[C@@H](CO)C(=O)NCC(=O)N[C@@H](CCSC)C(=O)N[C@@H](CO)C(=O)N[C@H](C(=O)N[C@@H](Cc1c[nH]c2ccccc12)C(=O)N[C@@H](CO)C(=O)N[C@@H](CCCCN)C(=O)N[C@@H](CCCNC(=N)N)C(=O)N[C@@H](CO)C(=O)N[C@@H](CC(C)C)C(N)=O)[C@@H](C)O)[C@@H](C)CC)[C@@H](C)CC)C(C)C)[C@@H](C)CC)C(C)C [Tag-PEG4-B7-33]
Ki [1]: > 10 µM

Second part, led by results:

Ki [1]: > 10 µM
SMILES: CCCCCCCCCCCCCCCC(=O)NCCCC[C@H](NC(=O)[C@@H](NC(=O)[C@@H](N)C(C)C)[C@@H](C)CC)C(=O)N[C@@H](CC(C)C)C(=O)N[C@@H](CO)C(=O)NCC(=O)N[C@@H](CCCNC(=N)N)C(=O)N[C@@H](CCC(=O)O)C(=O)N[C@@H](CC(C)C)C(=O)N[C@H](C(=O)N[C@@H](CCCNC(=N)N)C(=O)N[C@@H](C)C(=O)N[C@@H](CCC(N)=O)C(=O)N[C@H](C(=O)N[C@@H](C)C(=O)N[C@H](C(=O)N[C@@H](CO)C(=O)NCC(=O)N[C@@H](CCSC)C(=O)N[C@@H](CO)C(=O)N[C@H](C(=O)N[C@@H](Cc1c[nH]c2ccccc12)C(=O)N[C@@H](CO)C(=O)N[C@@H](CCCCN)C(=O)N[C@@H](CCCNC(=N)N)C(=O)N[C@@H](CO)C(=O)N[C@@H](CC(C)C)C(N)=O)[C@@H](C)O)[C@@H](C)CC)[C@@H](C)CC)C(C)C [B7-33_9K(Palm)] (H-VIK(Palmitoyl)LSGRELVRAQIAISGMSTWSKRSL-NH2; N-terminus assumed)

Ki [1]: > 10 µM
SMILES: CCCCCCCCCCCCCCCC(=O)NCCOCCOCCOCCOCCOCCOCCC(=O)N[C@H](C(=O)N[C@H](C(=O)N[C@@H](CCCCN)C(=O)N[C@@H](CC(C)C)C(=O)N[C@@H](CO)C(=O)NCC(=O)N[C@@H](CCCNC(=N)N)C(=O)N[C@@H](CCC(=O)O)C(=O)N[C@@H](CC(C)C)C(=O)N[C@H](C(=O)N[C@@H](CCCNC(=N)N)C(=O)N[C@@H](C)C(=O)N[C@@H](CCC(N)=O)C(=O)N[C@H](C(=O)N[C@@H](C)C(=O)N[C@H](C(=O)N[C@@H](CO)C(=O)NCC(=O)N[C@@H](CCSC)C(=O)N[C@@H](CO)C(=O)N[C@H](C(=O)N[C@@H](Cc1c[nH]c2ccccc12)C(=O)N[C@@H](CO)C(=O)N[C@@H](CCCCN)C(=O)N[C@@H](CCCNC(=N)N)C(=O)N[C@@H](CO)C(=O)N[C@@H](CC(C)C)C(N)=O)[C@@H](C)O)[C@@H](C)CC)[C@@H](C)CC)C(C)C)[C@@H](C)CC)C(C)C [Palmitic acid-PEG6-B7-33] ({Palmitoyl-PEG6}-VIKLSGRELVRAQIAISGMSTWSKRSL-NH2)

half-life at 400 µg/mL ([2]; human serum 400 µL + 200 µg peptide in 100 µL water, samples 0-480 min, acetonitrile precipitation, RP-HPLC peak area vs time zero, one-phase decay fit, n = 3, duplicate): 1 h
in vitro serum stability, in words ([2]; human serum, RP-HPLC, n = 3 independent experiments): stable in serum over time
SMILES: CCCCCCCCCCCCCCCC(=O)N[C@@H](CCC(=O)NCCCC[C@H](NC(C)=O)C(=O)NCCOCCOCCOCCOCCOCCOCCOCCOCCOCCOCCOCCOCCC(=O)N[C@H](C(=O)N[C@H](C(=O)N[C@@H](CCCCN)C(=O)N[C@@H](CC(C)C)C(=O)N[C@@H](CO)C(=O)NCC(=O)N[C@@H](CCCNC(=N)N)C(=O)N[C@@H](CCC(=O)O)C(=O)N[C@@H](CC(C)C)C(=O)N[C@H](C(=O)N[C@@H](CCCNC(=N)N)C(=O)N[C@@H](C)C(=O)N[C@@H](CCC(N)=O)C(=O)N[C@H](C(=O)N[C@@H](C)C(=O)N[C@H](C(=O)N[C@@H](CO)C(=O)NCC(=O)N[C@@H](CCSC)C(=O)N[C@@H](CO)C(=O)N[C@H](C(=O)N[C@@H](Cc1c[nH]c2ccccc12)C(=O)N[C@@H](CO)C(=O)N[C@@H](CCCCN)C(=O)N[C@@H](CCCNC(=N)N)C(=O)N[C@@H](CO)C(=O)N[C@@H](CC(C)C)C(N)=O)[C@@H](C)O)[C@@H](C)CC)[C@@H](C)CC)C(C)C)[C@@H](C)CC)C(C)C)C(=O)O [Ac K(PalmGlu)-PEG12-B7-33] (Ac-K([γGlu-Palmitoyl])[PEG12]VIKLSGRELVRAQIAISGMSTWSKRSL-NH2)
α-SMA expression levels versus T-alone-stimulated cells, in words ([3]; peptide 100 ng/mL + T 2 ng/mL, after 7–14 days of culture): fully returned to those measured for T-alone-stimulated cells
α-SMA expression level relative to T-alone-stimulated cells ([3]; peptide 100 ng/mL + T 2 ng/mL, after 5 days, media unchanged, 0.5% FCS): ~ 70%
suppression of TGF-α-induced increase in α-SMA expression ([3]; peptide 100 ng/mL co-administered with T (2 ng/mL), after 72 h of culture, 0.5% FCS, n = 6 in duplicate): almost fully suppressed
